Peptide text beside a SMILES is read from it.

The subject of one series is 0.5% whole blood. The settings on record: ref [5], [7], [11], [12], [38]; cited from earlier work.
For series [1] the following is noted: ref [11]; cited from earlier work.
The test system of a further series is RAW264.7 cells. In words: Uptake of TAMRA-labeled TCPs, flow cytometry. The series is classed as cell-based, murine. The settings on record: Fig. 1d, inhibitor 30 min then 2 µM T-GKY25 1 h, n = 3-4. For orientation: In flow cytometry, cells or beads pass a laser one at a time.

With `CC[C@H](C)[C@H](NC(=O)[C@H](Cc1c[nH]c2ccccc12)NC(=O)[C@H](CCCCN)NC(=O)[C@H](CCCCN)NC(=O)[C@H](CC(C)C)NC(=O)[C@H](CCCNC(=N)N)NC(=O)[C@H](Cc1ccccc1)NC(=O)[C@@H](NC(=O)[C@@H](N)Cc1cnc[nH]1)C(C)C)C(=O)N[C@@H](CCC(N)=O)C(=O)N[C@@H](CCCCN)C(=O)N[C@H](C(=O)N[C@H](C(=O)N[C@@H](CC(=O)O)C(=O)N[C@@H](CCC(N)=O)C(=O)N[C@@H](Cc1ccccc1)C(=O)NCC(=O)N[C@@H](CCC(=O)O)C(=O)O)[C@@H](C)CC)C(C)C` [HVF18] (H-HVFRLKKWIQKVIDQFGE-OH), the “concentration from which hemolysis is induced” value in the series on 0.5% whole blood was more than 80 µM. As for WFFFYYLIIGGGVVTHQQRKKKKDE [WFF25], the immunomodulatory effects result in series [1] is listed as “did not show any immunomodulatory effects”. For the compound `CN(C)c1cccc2c(S(=O)(=O)NCCCCCN)cccc12` [dansylcadaverine, Dansylcadaverine], the “effect of inhibitor on uptake of T-GKY25” value with RAW264.7 cells is on record as “did not show any effect”.

The record behind these values is publication PMC9485985 (Journal of Innate Immunity, 2021).
